Laboratory results published in ChEMBL document CHEMBL1135808, “A new type of mixed anhydride and its applications to the synthesis of 7-substituted 8-chloro-5,5-dioxoimidazo[1,2-b][1,4,2]benzodithiazines with in vitro antitumor activity” (2002).

Legend:
HCT-116 = experiment: Log of molar concentration leading to 50% cell death against colon cancer HCT116 cell line was reported; assay type: functional; conditions: Homo sapiens, read-out: Log LC50 (the source's name) (converted)
SF-539 [1] = experiment: Log of molar concentration leading to 50% cell death against CNS cancer SF-539 cell line was reported; assay type: functional; conditions: Homo sapiens, read-out: Log LC50 (the source's name) (converted)
KM12 = experiment: Log of molar concentration leading to 50% cell death against colon cancer KM12 cell line was reported; assay type: functional; conditions: Homo sapiens, read-out: Log LC50 (the source's name) (converted)
M14 [2] = experiment: Log of molar concentration leading to 50% cell death against melanoma M14 cell line was reported; assay type: functional; conditions: Homo sapiens, read-out: Log LC50 (the source's name) (converted)
NCI-H46 [3] = experiment: Log of molar concentration leading to 50% cell death against non-small-cell lung cancer […] cell line was reported; assay type: functional; conditions: Homo sapiens, read-out: Log LC50 (the source's name) (converted)
CAKI-1 = experiment: In vitro total growth inhibition against renal cancer CAKI-1cell lines was reported.; assay type: functional; conditions: Homo sapiens, read-out: Log TGI (converted)
786-0 [4] = experiment: In vitro growth inhibition against renal cancer […] cell line was reported.; assay type: functional; conditions: Homo sapiens
NCI-H23 = experiment: In vitro total growth inhibition against non-small-cell lung cancer NCI-H23 cell lines was reported.; assay type: functional; conditions: Homo sapiens, read-out: Log TGI (converted)
BT-549 = experiment: In vitro growth inhibition against breast cancer BT 549 cell line was reported.; assay type: functional; conditions: Homo sapiens
UACC-257 [5] = experiment: In vitro total growth inhibition against melanoma UACC-257 cell lines was reported.; assay type: functional; conditions: Homo sapiens, read-out: Log TGI (converted)
SK-MEL-5 = experiment: Log of molar concentration leading to 50% cell death against melanoma SK-MEL-5 cell line was reported; assay type: functional; conditions: Homo sapiens, read-out: Log LC50 (the source's name) (converted)
OVCAR-3 [6] = experiment: Log of molar concentration leading to 50% cell death against ovarian cancer OVCAR-3 cell line was reported; assay type: functional; conditions: Homo sapiens, read-out: Log LC50 (the source's name) (converted)
HCC 2998 [7] = experiment: In vitro total growth inhibition against colon cancer HCC2998 cell lines was reported.; assay type: functional; conditions: Homo sapiens, read-out: Log TGI (converted)
U-251 [8] = experiment: Log of molar concentration leading to 50% cell death against CNS cancer U251 cell line was reported; assay type: functional; conditions: Homo sapiens, read-out: Log LC50 (the source's name) (converted)
NCI/ADR-RES = experiment: In vitro growth inhibition against breast cancer NCI/ADR-RES cell line was reported.; assay type: functional; conditions: Homo sapiens
786-0 [9] = experiment: In vitro total growth inhibition against renal cancer […] cell lines was reported.; assay type: functional; conditions: Homo sapiens, read-out: Log TGI (converted)
OVCAR-8 = experiment: In vitro total growth inhibition against ovarian cancer OVCAR-8 cell lines was reported.; assay type: functional; conditions: Homo sapiens, read-out: Log TGI (converted)
MDA-N = experiment: In vitro growth inhibition against breast cancer MDA-N cell line was reported.; assay type: functional; conditions: Homo sapiens
MOLT-4 = experiment: In vitro growth inhibition against leukemia MOLT-4 cell line was reported.; assay type: functional; conditions: Homo sapiens
HCC 2998 [10] = experiment: In vitro growth inhibition against colon cancer HCC2998 cell line was reported.; assay type: functional; conditions: Homo sapiens
HL-60 = experiment: In vitro growth inhibition against leukemia HL-60(TB) cell line was reported.; assay type: functional; conditions: Homo sapiens
U-251 [11] = experiment: In vitro growth inhibition against CNS cancer U251 cell line was reported.; assay type: functional; conditions: Homo sapiens
NCI-H322M = experiment: In vitro total growth inhibition against non-small-cell lung cancer NCI-H322M cell lines was reported.; assay type: functional; conditions: Homo sapiens, read-out: Log TGI (converted)
PC-3 = experiment: In vitro total growth inhibition against prostate cancer PC-3 cell lines was reported.; assay type: functional; conditions: Homo sapiens, read-out: Log TGI (converted)
RPMI-8226 [12] = experiment: In vitro total growth inhibition against leukemia […] cell lines was reported.; assay type: functional; conditions: Homo sapiens, read-out: Log TGI (converted)
MCF7 [13] = experiment: In vitro total growth inhibition against breast cancer MCF 7 cell lines was reported.; assay type: functional; conditions: Homo sapiens, read-out: Log TGI (converted)
MDA-MB-231 = experiment: In vitro growth inhibition against breast cancer MDA-MB-231/ATCC cell line was reported.; assay type: functional; conditions: Homo sapiens
ACHN = experiment: In vitro total growth inhibition against renal cancer ACHN cell lines was reported.; assay type: functional; conditions: Homo sapiens, read-out: Log TGI (converted)
RPMI-8226 [14] = experiment: Log of molar concentration leading to 50% cell death against leukemia […] cell line was reported; assay type: functional; conditions: Homo sapiens, read-out: Log LC50 (the source's name) (converted)
MCF7 [15] = experiment: In vitro growth inhibition against breast cancer MCF 7 cell line was reported.; assay type: functional; conditions: Homo sapiens
HOP-92 = experiment: In vitro total growth inhibition against non-small-cell lung cancer HOP-92 cell lines was reported.; conditions: Homo sapiens, read-out: Log TGI (converted)
TK-10 [16] = experiment: In vitro total growth inhibition against renal cancer TK-10 cell lines was reported.; assay type: functional; conditions: Homo sapiens, read-out: Log TGI (converted)
RXF 393 = experiment: In vitro growth inhibition against renal cancer RXF 393 cell line was reported.; assay type: functional; conditions: Homo sapiens
A549 = experiment: In vitro total growth inhibition against non-small-cell lung cancer A 549/ATCC cell lines was reported.; assay type: functional; conditions: Homo sapiens, read-out: Log TGI (converted)
UACC-257 [17] = experiment: Log of molar concentration leading to 50% cell death against melanoma UACC-257 cell line was reported; assay type: functional; conditions: Homo sapiens, read-out: Log LC50 (the source's name) (converted)
Homo sapiens = species on record: Homo sapiens; experiment: In vitro total growth inhibition against non-small-cell lung cancer EKVX cell lines was reported.; assay type: functional; conditions: read-out: Log TGI (converted)
LOX IMVI = experiment: In vitro total growth inhibition against melanoma LOX IMVI cell lines was reported.; assay type: functional; conditions: Homo sapiens, read-out: Log TGI (converted)
OVCAR-4 = experiment: In vitro growth inhibition against ovarian cancer OVCAR-4 cell line was reported.; assay type: functional; conditions: Homo sapiens
UO-31 = experiment: In vitro growth inhibition against renal cancer UO-31 cell line was reported.; assay type: functional; conditions: Homo sapiens
SN12C = experiment: In vitro growth inhibition against renal cancer SN12C cell line was reported.; assay type: functional; conditions: Homo sapiens
SK-MEL-2 [18] = experiment: In vitro growth inhibition against melanoma SK-MEL-2 cell line was reported.; assay type: functional; conditions: Homo sapiens
SW-620 [19] = experiment: In vitro total growth inhibition against colon cancer SW-620 cell lines was reported.; assay type: functional; conditions: Homo sapiens, read-out: Log TGI (converted)
UACC-62 = experiment: In vitro growth inhibition against melanoma UACC-62 cell line was reported.; assay type: functional; conditions: Homo sapiens
TK-10 [20] = experiment: In vitro growth inhibition against renal cancer TK-10 cell line was reported.; assay type: functional; conditions: Homo sapiens
OVCAR-5 [21] = experiment: In vitro total growth inhibition against ovarian cancer OVCAR-5 cell lines was reported.; assay type: functional; conditions: Homo sapiens, read-out: Log TGI (converted)
M14 [22] = experiment: In vitro growth inhibition against melanoma M14 cell line was reported.; assay type: functional; conditions: Homo sapiens
SF-539 [23] = experiment: In vitro total growth inhibition against CNS cancer SF-539 cell lines was reported.; assay type: functional; conditions: Homo sapiens, read-out: Log TGI (converted)
NCI-H46 [24] = experiment: In vitro total growth inhibition against non-small-cell lung cancer […] cell lines was reported.; assay type: functional; conditions: Homo sapiens, read-out: Log TGI (converted)
OVCAR-5 [25] = experiment: In vitro growth inhibition against ovarian cancer OVCAR-5 cell line was reported.; assay type: functional; conditions: Homo sapiens
Tumor Cell line = experiment: Log of molar concentration leading to 50% cell death was reported; assay type: functional; conditions: Homo sapiens, read-out: Log LC50 (the source's name) (converted)
A498 = experiment: In vitro growth inhibition against renal cancer A498 cell line was reported.; assay type: functional; conditions: Homo sapiens
HT-29 = experiment: In vitro total growth inhibition against colon cancer HT-29 cell lines was reported.; assay type: functional; conditions: Homo sapiens, read-out: Log TGI (converted)
T47D = experiment: In vitro total growth inhibition against breast cancer […] cell lines was reported.; assay type: functional; conditions: Homo sapiens, read-out: Log TGI (converted)
HCT-15 = experiment: In vitro growth inhibition against colon cancer […] cell line was reported.; assay type: functional; conditions: Homo sapiens
NCI-H522 = experiment: In vitro total growth inhibition against non-small-cell lung cancer NCI-522 cell lines was reported.; assay type: functional; conditions: Homo sapiens, read-out: Log TGI (converted)
MCF7 [26] = experiment: Log of molar concentration leading to 50% cell death against breast cancer MCF 7 cell line was reported; assay type: functional; conditions: Homo sapiens, read-out: Log LC50 (the source's name) (converted)
SNB-19 = experiment: In vitro growth inhibition against CNS cancer SNB-19 cell line was reported.; assay type: functional; conditions: Homo sapiens
SK-MEL-2 [27] = experiment: In vitro total growth inhibition against melanoma SK-MEL-2 cell lines was reported.; assay type: functional; conditions: Homo sapiens, read-out: Log TGI (converted)
OVCAR-3 [28] = experiment: In vitro total growth inhibition against ovarian cancer OVCAR-3 cell lines was reported.; assay type: functional; conditions: Homo sapiens, read-out: Log TGI (converted)
SK-MEL-28 = experiment: In vitro growth inhibition against melanoma SK-MEL-28 cell line was reported.; assay type: functional; conditions: Homo sapiens
SW-620 [29] = experiment: In vitro growth inhibition against colon cancer SW620 cell line was reported.; assay type: functional; conditions: Homo sapiens

O=C(Nc1cccc2nsnc12)c1cc2c(cc1Cl)Sc1nccn1S2(=O)=O
CC50 (HCT-116): 12.9 µM | CC50 (SF-539 [1]): 15.5 µM | CC50 (KM12): 7.41 µM | CC50 (M14 [2]): 69.2 µM | CC50 (NCI-H46 [3]): 8.91 µM | TGI (CAKI-1): 19.1 µM | GI50 (786-0 [4]): 16.6 µM | TGI (NCI-H23): 25.1 µM | GI50 (BT-549): 12.3 µM | TGI (UACC-257 [5]): 3.39 µM | CC50 (SK-MEL-5): 72.4 µM | CC50 (OVCAR-3 [6]): 6.61 µM | TGI (HCC 2998 [7]): 11.7 µM | CC50 (U-251 [8]): 44.7 µM | GI50 (NCI/ADR-RES): 17.8 µM | TGI (786-0 [9]): 30.2 µM | TGI (OVCAR-8): 7.08 µM | GI50 (MDA-N): 13.5 µM | GI50 (MOLT-4): 2.75 µM | GI50 (HCC 2998 [10]): 3.39 µM | GI50 (HL-60): 1.86 µM | GI50 (U-251 [11]): 4.57 µM | TGI (NCI-H322M): 3.24 µM | TGI (PC-3): 3.55 µM | TGI (RPMI-8226 [12]): 4.07 µM | TGI (MCF7 [13]): 3.39 µM | GI50 (MDA-MB-231): 6.03 µM | TGI (ACHN): 36.3 µM | CC50 (RPMI-8226 [14]): 7.94 µM | GI50 (MCF7 [15]): 1.74 µM | TGI (HOP-92): 25.7 µM | TGI (TK-10 [16]): 22.9 µM | GI50 (RXF 393): 4.68 µM | TGI (A549): 38.9 µM | CC50 (UACC-257 [17]): 6.31 µM | TGI (Homo sapiens): 4.68 µM | TGI (LOX IMVI): 40.7 µM | GI50 (OVCAR-4): 2.75 µM | GI50 (UO-31): 2.09 µM | GI50 (SN12C): 15.1 µM | GI50 (SK-MEL-2 [18]): 10 µM | TGI (SW-620 [19]): 46.8 µM | GI50 (UACC-62): 5.37 µM | GI50 (TK-10 [20]): 10.5 µM | TGI (OVCAR-5 [21]): 83.2 µM | GI50 (M14 [22]): 17.4 µM | TGI (SF-539 [23]): 4.9 µM | TGI (NCI-H46 [24]): 4.27 µM | GI50 (OVCAR-5 [25]): 29.5 µM | CC50 (Tumor Cell line): 95.5 µM | GI50 (A498): 13.5 µM | TGI (HT-29): 5.25 µM | TGI (T47D): 5.75 µM | GI50 (HCT-15): 5.25 µM | TGI (NCI-H522): 22.4 µM | CC50 (MCF7 [26]): 6.61 µM | GI50 (SNB-19): 12 µM | TGI (SK-MEL-2 [27]): 25.7 µM | TGI (OVCAR-3 [28]): 3.47 µM | GI50 (SK-MEL-28): 2.45 µM | GI50 (SW-620 [29]): 12 µM
